Results as given in the supplement of paper PMC10307832.

Tests used:
Assay in all cases: relative viability (nuclei count vs DMSO), 5 days (fraction); higher = more cells survive
[1] = test system: EKVX
Summary of the method: (§1)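 Relative viability is defined as nuclei in treated wells over nuclei in vehicle wells. Duplicate plates were run and medians reported. Lung cancer cell lines in 1536-well plates were dosed by pin tool one day after seeding, with one drug or with a fixed anchor-drug dose plus five library-drug doses (not always all listed) in √10 steps, and nuclei were counted after 5 days.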

[2] = test system: EMC-BAC-2
Summary of the method: as §1

[3] = test system: PC-14
Summary of the method: as §1

[4] = test system: COR-L 105
Summary of the method: as §1

[5] = test system: A-427
Summary of the method: as §1

[6] = test system: BEN
Summary of the method: as §1

[7] = test system: SK-MES-1
Summary of the method: as §1

[8] = test system: HOP-62
Summary of the method: as §1

[9] = test system: NCI-H661
Summary of the method: as §1

[10] = test system: NCI-H1915
Summary of the method: as §1

[11] = test system: 201T
Summary of the method: as §1

[12] = test system: HCC-78
Summary of the method: as §1

[13] = test system: NCI-H1993
Summary of the method: as §1

[14] = test system: NCI-H647
Summary of the method: as §1

[15] = test system: NCI-H460
Summary of the method: as §1

[16] = test system: NCI-H1563
Summary of the method: as §1

[17] = test system: LK-2
Summary of the method: as §1

[18] = test system: COR-L23
Summary of the method: as §1

[19] = test system: NCI-H2405
Summary of the method: as §1

[20] = test system: HCC-366
Summary of the method: as §1

[21] = test system: HCC-15
Summary of the method: as §1

[22] = test system: NCI-H1734
Summary of the method: as §1

Cc1cn(-c2cc(NC(=O)c3ccc(C)c(Nc4nccc(-c5cccnc5)n4)c3)cc(C(F)(F)F)c2)cn1 [Nilotinib] + CS(=O)(=O)N1CCN(Cc2cc3nc(-c4cccc5[nH]ncc45)nc(N4CCOCC4)c3s2)CC1 [Pictilisib] (partner 1 µM)
relative viability ([1]; first compound 0.001 µM): 0.486
relative viability ([1]; first compound 0.003162 µM): 0.588
relative viability ([1]; first compound 0.01 µM): 0.531
relative viability ([1]; first compound 0.03162 µM): 0.344
relative viability ([1]; first compound 0.1 µM): 0.552
relative viability ([2]; first compound 0.001 µM): 0.528
relative viability ([2]; first compound 0.003162 µM): 0.538
relative viability ([2]; first compound 0.01 µM): 0.606
relative viability ([2]; first compound 0.03162 µM): 0.486
relative viability ([2]; first compound 0.1 µM): 0.479
relative viability ([3]; first compound 0.003162 µM): 0.83
relative viability ([3]; first compound 0.01 µM): 0.841
relative viability ([3]; first compound 0.03162 µM): 0.503
relative viability ([3]; first compound 0.1 µM): 0.664
relative viability ([4]; first compound 0.001 µM): 0.435
relative viability ([4]; first compound 0.01 µM): 0.407
relative viability ([4]; first compound 0.03162 µM): 0.437
relative viability ([4]; first compound 0.1 µM): 0.331
relative viability ([5]; first compound 0.001 µM): 0.728
relative viability ([5]; first compound 0.01 µM): 0.731
relative viability ([5]; first compound 0.03162 µM): 0.658
relative viability ([5]; first compound 0.1 µM): 0.11
relative viability ([6]; first compound 0.001 µM): 0.588
relative viability ([6]; first compound 0.003162 µM): 0.552
relative viability ([6]; first compound 0.01 µM): 0.574
relative viability ([6]; first compound 0.1 µM): 0.556
relative viability ([7]; first compound 0.001 µM): 0.433
relative viability ([7]; first compound 0.003162 µM): 0.447
relative viability ([7]; first compound 0.01 µM): 0.424
relative viability ([7]; first compound 0.03162 µM): 0.396
relative viability ([7]; first compound 0.1 µM): 0.465
relative viability ([8]; first compound 0.001 µM): 0.539
relative viability ([8]; first compound 0.003162 µM): 0.902
relative viability ([8]; first compound 0.01 µM): 0.587
relative viability ([8]; first compound 0.03162 µM): 0.63
relative viability ([8]; first compound 0.1 µM): 0.401
relative viability ([9]; first compound 0.001 µM): 0.396
relative viability ([9]; first compound 0.003162 µM): 0.38
relative viability ([9]; first compound 0.01 µM): 0.438
relative viability ([9]; first compound 0.03162 µM): 0.325
relative viability ([9]; first compound 0.1 µM): 0.391
relative viability ([10]; first compound 0.001 µM): 0.958
relative viability ([10]; first compound 0.003162 µM): 1.02
relative viability ([10]; first compound 0.01 µM): 0.903
relative viability ([10]; first compound 0.03162 µM): 0.993
relative viability ([10]; first compound 0.1 µM): 0.408
relative viability ([11]; first compound 0.001 µM): 0.732
relative viability ([11]; first compound 0.003162 µM): 0.742
relative viability ([11]; first compound 0.01 µM): 0.531
relative viability ([11]; first compound 0.1 µM): 0.459
relative viability ([12]; first compound 0.001 µM): 0.211
relative viability ([12]; first compound 0.003162 µM): 0.178
relative viability ([12]; first compound 0.01 µM): 0.198
relative viability ([12]; first compound 0.03162 µM): 0.202
relative viability ([12]; first compound 0.1 µM): 0.224
relative viability ([13]; first compound 0.001 µM): 0.984
relative viability ([13]; first compound 0.003162 µM): 0.682
relative viability ([13]; first compound 0.01 µM): 0.789
relative viability ([13]; first compound 0.03162 µM): 0.917
relative viability ([13]; first compound 0.1 µM): 0.673
relative viability ([14]; first compound 0.001 µM): 0.528
relative viability ([14]; first compound 0.003162 µM): 0.452
relative viability ([14]; first compound 0.01 µM): 0.38
relative viability ([14]; first compound 0.03162 µM): 0.43
relative viability ([14]; first compound 0.1 µM): 0.397
relative viability ([15]; first compound 0.001 µM): 0.356
relative viability ([15]; first compound 0.003162 µM): 0.41
relative viability ([15]; first compound 0.01 µM): 0.402
relative viability ([15]; first compound 0.03162 µM): 0.263
relative viability ([15]; first compound 0.1 µM): 0.418
relative viability ([16]; first compound 0.001 µM): 0.553
relative viability ([16]; first compound 0.003162 µM): 0.608
relative viability ([16]; first compound 0.01 µM): 0.649
relative viability ([16]; first compound 0.03162 µM): 0.602
relative viability ([16]; first compound 0.1 µM): 0.46
relative viability ([17]; first compound 0.001 µM): 0.614
relative viability ([17]; first compound 0.003162 µM): 0.451
relative viability ([17]; first compound 0.01 µM): 0.577
relative viability ([17]; first compound 0.03162 µM): 0.594
relative viability ([17]; first compound 0.1 µM): 0.608
relative viability ([18]; first compound 0.001 µM): 0.777
relative viability ([18]; first compound 0.003162 µM): 1.01
relative viability ([18]; first compound 0.01 µM): 1.4
relative viability ([18]; first compound 0.03162 µM): 0.901
relative viability ([18]; first compound 0.1 µM): 0.607
relative viability ([19]; first compound 0.001 µM): 0.426
relative viability ([19]; first compound 0.003162 µM): 0.404
relative viability ([19]; first compound 0.01 µM): 0.315
relative viability ([19]; first compound 0.03162 µM): 0.296
relative viability ([19]; first compound 0.1 µM): 0.345
relative viability ([20]; first compound 0.001 µM): 0.161
relative viability ([20]; first compound 0.01 µM): 0.133
relative viability ([20]; first compound 0.03162 µM): 0.111
relative viability ([20]; first compound 0.1 µM): 0.137
relative viability ([21]; first compound 0.001 µM): 0.703
relative viability ([21]; first compound 0.003162 µM): 0.874
relative viability ([21]; first compound 0.01 µM): 0.843
relative viability ([21]; first compound 0.03162 µM): 0.542
relative viability ([21]; first compound 0.1 µM): 0.301
relative viability ([22]; first compound 0.001 µM): 0.445
relative viability ([22]; first compound 0.003162 µM): 0.48
relative viability ([22]; first compound 0.01 µM): 0.447
relative viability ([22]; first compound 0.03162 µM): 0.384
relative viability ([22]; first compound 0.1 µM): 0.236
